From patent US6110895A, “Method of promoting healing in skin grafts” (University of Southern California, priority 1997, dated 2000)

Assays:
[1] = system: full thickness dermal wounds; assay: Wound closure by analogs of AII and AIII, Table 4 (Example 7); format: in vivo, Sprague Dawley rats; conditions: percentage of vehicle-treated control wound, method of Example 6 (100 μg/wound, days 0-4)
Source text: Female Sprague Dawley rats weighing 175-200 grams were obtained from Simonsen Laboratories (Gilroy, Calif.). On the day of surgery, rats received intramuscular ketamine/rompum anesthesia prior to preparation for surgery. The rats were shaved and scrubbed with betadine. Two 1.5×1.5 cm full thickness dermal wounds were created on the dorsal surface of each rat. Following excision of the skin, the size of the wound was outlined on a glass slide to establish the baseline wound size. The medicament was administered in 100 μl of 10% low viscosity carboxymethyl cellulose (Sigma). The p-NH2 -Phe6-AII test material was administered in a randomized fashion with all materials being tested at 100 μg/wound. Control wounds were treated with vehicle only. After administration of the materials, the rats were bandaged and allowed to recovery from anesthesia. The rats were treated with an additional 100 μg of peptide formulation on days 1-4 after surgery. On days 2, 4, 7 and 9 the area of the skin wounds were measured under methoxyflurane anesthesia. The area of the wound was determined by: (1) tracing the wound shape onto graph paper (1×1 mm squares); (2) cutting out the shape; (3) weighing the paper and comparing the weight with a 1.5×1.5 cm paper cutout; and (4) counting the number of squares on the graph paper. In addition, on days 2, 4 and 7 the area of granulation tissue was similarly determined.
Analogs of AII and AIII having the structures disclosed in Table 4 were prepared using an automated peptide synthesizer and methods familiar to those having ordinary skill in the art. Each of the analogs was tested for its ability to accelerate wound healing essentially according to the method of Example 6. Results of procedures used to determine the extent of wound closure at days 4 and 9 measured as a percentage of a vehicle-treated control wound are also presented in Table 4. Since all of the analogs were not tested during the same experimental procedure, AII was included as a positive control for each group of peptides tested. As designated below, peptide analogs are identified as analogs of AII or AIII having amino acid substitutions at positions indicated by superscripts. Thus, for example, Gly^4 -AIII is the designation for an AIII analog having a Gly residue substituted at position 4 of AIII. Results from procedures using analogs that were tested as a group are grouped together in the following Table.

rat carotid artery = conditions: cited from earlier work; for neointimal formation: similar model, Janiak et al. 1992, CGP 42112 infused perivascularly 14 days, losartan low doses
[2] = system: full thickness dermal wounds; assay: Healing of full thickness dermal wounds with AIII (Example 3); format: in vivo, Sprague Dawley rats; conditions: 2×2 cm wounds; 3 μg and 10 μg dosages; FIG. 8
Source text: Twelve week old male Sprague Dawley rats were obtained from Simonsen Laboratories (Gilroy, Calif.). On the date of surgery, rats received intramuscular ketamine/rompum anesthesia prior to preparation for surgery. The rats were shaved and scrubbed with betadine. Four 2×2 cm full thickness dermal wounds were created on the dorsal surface of the rat. Following excision of the skin, the size of the wound was outlined on a glass slide to establish the baseline wound size. The medicament was administered in 100 μl of a solution comprising 10% HYDRON, 1% polyethylene glycol (MW 400) and 60% ethanol. Test materials were administered in a randomized fashion. AIII was evaluated at 3 and 10 μg/wound. Controls were treated with vehicle only. After administration of the materials, the rats were bandaged and allowed to recover from anesthesia. At days 2, 5, 6, 8 and 10 the area of the skin wounds were measured under methoxyflurane anesthesia. The area of the wound was determined by: (1) tracing the wound shape onto graph paper (1×1 mm squares); (2) cutting out the shape; (3) weighing the paper and comparing the weight with a 2×2 cm paper cutout; and (4) counting the number of squares.

[3] = cited from earlier work
[4] = intracerebroventricular infusion at concentrations 1,000 times higher than that of AII; cited from earlier work
aminopeptidase = conditions: reported in literature; cited from earlier work

Compound: Asp-Arg-Val-Tyr(PO3)2 -Ile-His-Pro-Phe [[Tyr(PO3)2]^4 -AII]
- extent of wound closure, % Control (Day 4) [1]: 81.3%
- extent of wound closure, % Control (Day 9) [1]: 61.9%

Compound: Cc1cc(Cn2cnc3c2C[C@@H](C(=O)O)N(C(=O)C(c2ccccc2)c2ccccc2)C3)ccc1N(C)C [PD 123319]
- reduction of intimal hyperplasia (rat carotid artery; Pratt et al. 1992): 73%

Compound: homoSer^4 -AII [GSD41B]
- extent of wound closure, % Control (Day 4) [1]: 77.6%
- extent of wound closure, % Control (Day 9) [1]: 55.8%

Compound: CC[C@H](C)[C@H](NC(=O)[C@H](Cc1ccc(O)cc1)NC(=O)[C@@H](NC(=O)[C@@H](N)CCCNC(=N)N)C(C)C)C(=O)N[C@@H](Cc1c[nH]cn1)C(=O)N1CCC[C@H]1C(=O)N[C@@H](Cc1ccccc1)C(=O)O [AIII, Arg-Val-Tyr-Ile-His-Pro-Phe]
- wound closure relative to vehicle-treated control [2]: substantially accelerated

Compound: CCCCc1nc(Cl)c(CO)n1Cc1ccc(-c2ccccc2-c2nn[nH]n2)cc1 [losartan]
- decrease of intimal area (rat carotid artery; Pratt et al. 1992): 95%
- neointimal formation, higher doses (rat carotid artery; other studies, losartan at higher doses): effective
- neointimal formation (rat carotid artery): ineffective

Compound: Asp-Arg-Val-Tyr-Ile-His-Pro (DRVYIHP; printed: Asp-Arg-Val-Tyr-Ile-His-Pro) [AII(1-7)]
- amount needed for pressor response comparable to AII ([3]; Benter et al. 1993): about 10,000 times
- dose effective on blood pressure relative to the dose of AII ([3]; depending on model and route of administration): 10,000-100,000 times

Compound: Ile-His-Pro-Phe (IHPF; printed: Ile-His-Pro-Phe) [AII(5-8)]
- effect on blood pressure [4]: minimal effect on blood pressure

Compound: CGP 42112
- neointimal formation (rat carotid artery): prevented neointimal formation

Compound: CC[C@H](C)[C@H](NC(=O)[C@H](Cc1ccc(O)cc1)NC(=O)[C@@H](NC(=O)[C@H](CCCNC(=N)N)NC(=O)CNC)C(C)C)C(=O)N[C@@H](Cc1cnc[nH]1)C(=O)N1CCC[C@H]1C(=O)N[C@@H](Cc1ccccc1)C(=O)O [Analog 4, Sar-Arg-Val-Tyr-Ile-His-Pro-Phe]
- cleavage by aminopeptidase (aminopeptidase): resistant to cleavage by aminopeptidase
